Measured values taken from ChEMBL document CHEMBL1137456, “The synthesis and biological activity of pentafluorosulfanyl analogs of fluoxetine, fenfluramine, and norfenfluramine” (Bioorg Med Chem, 2007).

Legend:
Assay type in all cases: cell-based
Details in all cases: COS-7
[1] = biological target: T1, 5-hydroxytryptamine receptor 3A (Homo sapiens) (UniProt P46098); experiment: Inhibition of human 5HT3 expressed in COS7 cells at 10 uM
T1 sequence (whole entry): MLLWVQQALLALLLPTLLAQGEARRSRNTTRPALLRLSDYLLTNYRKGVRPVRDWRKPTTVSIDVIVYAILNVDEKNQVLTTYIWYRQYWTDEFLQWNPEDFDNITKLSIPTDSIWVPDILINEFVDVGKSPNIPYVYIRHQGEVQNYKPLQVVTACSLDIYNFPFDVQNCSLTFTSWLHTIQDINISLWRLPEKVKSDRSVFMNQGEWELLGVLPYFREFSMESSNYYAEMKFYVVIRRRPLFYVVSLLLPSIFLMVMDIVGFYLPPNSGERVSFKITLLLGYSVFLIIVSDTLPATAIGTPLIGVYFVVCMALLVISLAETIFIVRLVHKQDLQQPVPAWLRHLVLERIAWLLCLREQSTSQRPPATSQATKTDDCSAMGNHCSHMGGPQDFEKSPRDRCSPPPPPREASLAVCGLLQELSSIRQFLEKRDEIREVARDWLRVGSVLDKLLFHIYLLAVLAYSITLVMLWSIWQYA

[2] = biological target: 5-hydroxytryptamine receptor 1E (Homo sapiens) (UniProt P28566); experiment: Inhibition of human 5HT1E expressed in COS7 cells at 10 uM
[3] = biological target: T2, 5-hydroxytryptamine receptor 1A (Homo sapiens) (UniProt P08908); experiment: Inhibition of human 5HT1A expressed in COS7 cells at 10 uM
T2 sequence (whole entry): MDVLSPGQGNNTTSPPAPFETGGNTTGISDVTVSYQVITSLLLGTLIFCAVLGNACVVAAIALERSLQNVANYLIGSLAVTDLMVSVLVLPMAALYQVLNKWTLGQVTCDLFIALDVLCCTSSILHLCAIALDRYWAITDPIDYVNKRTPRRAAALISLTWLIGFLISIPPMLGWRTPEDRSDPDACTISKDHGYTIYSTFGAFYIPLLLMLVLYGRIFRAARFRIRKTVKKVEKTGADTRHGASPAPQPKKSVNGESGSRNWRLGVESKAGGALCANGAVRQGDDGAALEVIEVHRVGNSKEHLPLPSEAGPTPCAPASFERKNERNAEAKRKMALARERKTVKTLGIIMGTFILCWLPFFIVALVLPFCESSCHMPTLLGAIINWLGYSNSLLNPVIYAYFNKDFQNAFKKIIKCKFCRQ

[4] = biological target: 5-hydroxytryptamine receptor 2A (Rattus norvegicus) (UniProt P14842); experiment: Inhibition of rat 5HT2A expressed in COS7 cells at 10 uM
[5] = biological target: T3, 5-hydroxytryptamine receptor 2C (Rattus norvegicus) (UniProt P08909); experiment: Inhibition of rat 5HT2C expressed in COS7 cells at 10 uM
T3 sequence (whole entry): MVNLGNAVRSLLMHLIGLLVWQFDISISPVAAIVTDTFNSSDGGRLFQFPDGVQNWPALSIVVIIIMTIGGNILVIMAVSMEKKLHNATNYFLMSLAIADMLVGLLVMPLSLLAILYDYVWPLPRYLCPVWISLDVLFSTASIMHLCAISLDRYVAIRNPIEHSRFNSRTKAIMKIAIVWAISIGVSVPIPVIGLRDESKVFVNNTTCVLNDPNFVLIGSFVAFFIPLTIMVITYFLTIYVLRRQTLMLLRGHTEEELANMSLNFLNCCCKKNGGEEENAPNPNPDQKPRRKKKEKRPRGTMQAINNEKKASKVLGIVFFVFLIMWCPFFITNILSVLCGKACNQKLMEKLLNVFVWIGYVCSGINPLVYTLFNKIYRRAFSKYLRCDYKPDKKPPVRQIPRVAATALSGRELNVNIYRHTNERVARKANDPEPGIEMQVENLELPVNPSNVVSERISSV

[6] = biological target: 5-hydroxytryptamine receptor 7 (Homo sapiens) (UniProt P34969); experiment: Inhibition of human 5HT7 expressed in COS7 cells at 10 uM
[7] = biological target: 5-hydroxytryptamine receptor 2B (Homo sapiens) (UniProt P41595); experiment: Inhibition of human 5HT2B expressed in COS7 cells at 10 uM
[8] = biological target: 5-hydroxytryptamine receptor 1D (Homo sapiens) (UniProt P28221); experiment: Inhibition of human 5HT1D expressed in COS7 cells at 10 uM
[9] = biological target: 5-hydroxytryptamine receptor 5A (Homo sapiens) (UniProt P47898); experiment: Inhibition of human 5HT5A expressed in COS7 cells at 10 uM
[10] = biological target: 5-hydroxytryptamine receptor 1B (Homo sapiens) (UniProt P28222); experiment: Inhibition of human 5HT1B expressed in COS7 cells at 10 uM
[11] = biological target: 5-hydroxytryptamine receptor 6 (Homo sapiens) (UniProt P50406); experiment: Inhibition of human 5HT6 expressed in COS7 cells at 10 uM
Sequence of 5-hydroxytryptamine receptor 6 (Homo sapiens) (P50406 whole entry): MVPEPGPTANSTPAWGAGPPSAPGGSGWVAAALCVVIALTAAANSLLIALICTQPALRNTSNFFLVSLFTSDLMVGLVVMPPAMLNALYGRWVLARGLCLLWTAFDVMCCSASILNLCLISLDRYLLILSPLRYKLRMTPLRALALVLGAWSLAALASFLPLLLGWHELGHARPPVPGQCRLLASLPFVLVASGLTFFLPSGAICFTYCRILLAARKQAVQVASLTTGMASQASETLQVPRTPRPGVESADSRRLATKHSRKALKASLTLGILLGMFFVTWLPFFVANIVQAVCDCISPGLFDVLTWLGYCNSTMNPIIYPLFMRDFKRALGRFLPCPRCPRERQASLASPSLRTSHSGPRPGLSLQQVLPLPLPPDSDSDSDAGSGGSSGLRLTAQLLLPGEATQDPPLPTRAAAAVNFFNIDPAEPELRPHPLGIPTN

Sequence of 5-hydroxytryptamine receptor 2B (Homo sapiens) (P41595 whole entry): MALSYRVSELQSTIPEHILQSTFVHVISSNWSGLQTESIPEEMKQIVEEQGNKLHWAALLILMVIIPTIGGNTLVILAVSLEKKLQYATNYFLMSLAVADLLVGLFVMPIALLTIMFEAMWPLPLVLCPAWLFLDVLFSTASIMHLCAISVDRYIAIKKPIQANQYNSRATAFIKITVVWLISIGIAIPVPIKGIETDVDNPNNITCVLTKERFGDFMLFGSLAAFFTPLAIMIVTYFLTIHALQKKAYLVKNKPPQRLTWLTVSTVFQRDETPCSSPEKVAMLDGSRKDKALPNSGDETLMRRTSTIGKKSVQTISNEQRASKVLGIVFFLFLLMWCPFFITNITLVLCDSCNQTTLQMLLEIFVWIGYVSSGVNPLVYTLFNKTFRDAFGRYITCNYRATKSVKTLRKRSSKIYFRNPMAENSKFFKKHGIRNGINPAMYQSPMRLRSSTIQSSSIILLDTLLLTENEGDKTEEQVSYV
Sequence of 5-hydroxytryptamine receptor 5A (Homo sapiens) (P47898 whole entry): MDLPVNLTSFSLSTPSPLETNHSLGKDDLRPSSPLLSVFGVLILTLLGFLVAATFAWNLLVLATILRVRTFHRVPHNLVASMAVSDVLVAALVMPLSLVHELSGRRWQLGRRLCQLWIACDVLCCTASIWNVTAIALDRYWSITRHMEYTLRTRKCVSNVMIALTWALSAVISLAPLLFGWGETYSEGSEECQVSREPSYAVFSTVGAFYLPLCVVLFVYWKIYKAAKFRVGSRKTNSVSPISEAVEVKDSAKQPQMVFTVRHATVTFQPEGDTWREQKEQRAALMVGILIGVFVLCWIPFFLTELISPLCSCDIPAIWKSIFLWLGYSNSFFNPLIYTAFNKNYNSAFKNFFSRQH
Sequence of 5-hydroxytryptamine receptor 1B (Homo sapiens) (P28222 whole entry): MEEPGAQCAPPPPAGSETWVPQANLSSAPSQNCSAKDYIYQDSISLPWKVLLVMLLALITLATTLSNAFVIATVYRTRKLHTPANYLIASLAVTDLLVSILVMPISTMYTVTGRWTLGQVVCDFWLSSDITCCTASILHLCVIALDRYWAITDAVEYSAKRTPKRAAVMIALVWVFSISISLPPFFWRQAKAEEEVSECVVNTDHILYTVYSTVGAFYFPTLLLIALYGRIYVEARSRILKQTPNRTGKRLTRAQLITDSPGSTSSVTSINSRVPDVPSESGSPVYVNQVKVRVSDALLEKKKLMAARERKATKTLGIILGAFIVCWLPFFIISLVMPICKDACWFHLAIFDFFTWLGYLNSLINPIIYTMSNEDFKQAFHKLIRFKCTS
Sequence of 5-hydroxytryptamine receptor 2A (Rattus norvegicus) (P14842 whole entry): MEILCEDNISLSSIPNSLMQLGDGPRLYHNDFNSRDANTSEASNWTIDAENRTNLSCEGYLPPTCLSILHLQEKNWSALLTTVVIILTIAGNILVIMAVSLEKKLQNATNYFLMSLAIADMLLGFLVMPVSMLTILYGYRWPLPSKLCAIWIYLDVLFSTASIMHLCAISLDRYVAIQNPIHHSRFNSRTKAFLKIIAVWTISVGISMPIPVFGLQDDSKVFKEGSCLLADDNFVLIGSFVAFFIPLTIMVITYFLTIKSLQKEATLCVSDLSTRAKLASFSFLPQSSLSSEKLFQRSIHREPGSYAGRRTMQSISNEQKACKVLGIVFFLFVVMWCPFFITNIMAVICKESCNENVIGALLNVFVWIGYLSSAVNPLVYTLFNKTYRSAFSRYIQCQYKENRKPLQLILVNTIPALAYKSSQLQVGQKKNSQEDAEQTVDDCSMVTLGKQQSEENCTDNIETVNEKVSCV
Sequence of 5-hydroxytryptamine receptor 1D (Homo sapiens) (P28221 whole entry): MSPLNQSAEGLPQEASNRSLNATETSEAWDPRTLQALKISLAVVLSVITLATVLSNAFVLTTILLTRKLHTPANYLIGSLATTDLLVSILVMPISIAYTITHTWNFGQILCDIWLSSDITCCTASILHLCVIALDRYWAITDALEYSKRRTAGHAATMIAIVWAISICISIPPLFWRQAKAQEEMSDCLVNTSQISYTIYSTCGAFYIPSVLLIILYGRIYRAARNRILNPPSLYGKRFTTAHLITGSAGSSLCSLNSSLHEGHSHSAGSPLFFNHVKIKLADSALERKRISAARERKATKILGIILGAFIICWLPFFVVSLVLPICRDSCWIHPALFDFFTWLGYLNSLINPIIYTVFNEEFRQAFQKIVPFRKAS
Sequence of 5-hydroxytryptamine receptor 1E (Homo sapiens) (P28566 whole entry): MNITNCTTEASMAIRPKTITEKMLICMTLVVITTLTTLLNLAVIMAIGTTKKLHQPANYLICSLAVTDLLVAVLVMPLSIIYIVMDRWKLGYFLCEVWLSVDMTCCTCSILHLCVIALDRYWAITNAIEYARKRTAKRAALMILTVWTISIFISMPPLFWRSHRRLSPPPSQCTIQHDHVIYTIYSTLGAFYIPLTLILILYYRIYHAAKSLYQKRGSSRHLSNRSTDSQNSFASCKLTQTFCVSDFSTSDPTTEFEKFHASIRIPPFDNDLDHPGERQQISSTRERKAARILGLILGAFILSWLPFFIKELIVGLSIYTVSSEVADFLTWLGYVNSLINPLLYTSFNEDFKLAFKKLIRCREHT
Sequence of 5-hydroxytryptamine receptor 7 (Homo sapiens) (P34969 whole entry): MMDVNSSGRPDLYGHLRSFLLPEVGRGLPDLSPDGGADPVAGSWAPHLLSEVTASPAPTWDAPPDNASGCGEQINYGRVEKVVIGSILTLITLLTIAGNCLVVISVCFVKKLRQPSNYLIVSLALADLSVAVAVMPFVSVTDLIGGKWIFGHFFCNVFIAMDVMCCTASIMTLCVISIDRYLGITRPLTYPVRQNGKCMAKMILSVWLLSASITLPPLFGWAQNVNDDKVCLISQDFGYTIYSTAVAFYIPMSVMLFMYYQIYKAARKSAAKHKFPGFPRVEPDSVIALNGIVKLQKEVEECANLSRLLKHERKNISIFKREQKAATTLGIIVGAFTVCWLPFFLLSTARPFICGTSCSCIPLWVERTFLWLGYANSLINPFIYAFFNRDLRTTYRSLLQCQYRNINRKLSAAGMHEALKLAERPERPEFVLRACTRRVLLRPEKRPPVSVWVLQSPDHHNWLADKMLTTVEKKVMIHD

Row | Structure (SMILES) | inhibition [1] [%] | inhibition [2] [%] | inhibition [3] [%] | inhibition [4] [%] | inhibition [5] [%] | inhibition [6] [%] | inhibition [7] [%] | inhibition [8] [%] | inhibition [9] [%] | inhibition [10] [%] | inhibition [11] [%]
1 | CC(N)Cc1cccc(S(F)(F)(F)(F)F)c1 (stereo not drawn) | -6.1 | 23.4 | 50 | 85.9 | 94.6 | 50 | 89.6 | 73.7 | 31.3 | 62.9 | 50
2 | CNCCC(Oc1ccc(S(F)(F)(F)(F)F)cc1)c1ccccc1 (stereo not drawn) | 6.8 | 77.8 | -3 | 97.3 | 75.8 | 12 | 71.9 | 12.7 | 25 | 3.4 | 1.5
3 | CCNC(C)Cc1cccc(S(F)(F)(F)(F)F)c1 (stereo not drawn) | 14.6 | 7.3 | 85.5 | 53.2 | 72.8 | 50 | 85.3 | 15.2 | 62.7 | 63.5 | 50
